Numbers after ± are expanded uncertainties.
Test: xn = mol fraction of the nth substance listed
Conditions: 101 kPa, Liquid, Vibrating tube method

CCC(=O)O [propanoic acid] + CC(C)CO
mass density [kg/m3]
Conditions | 283.15 K | 293.15 K | 303.15 K | 313.15 K | 323.15 K | 333.15 K
x1 = 0.0803 | 815.48 ± 0.23 | 811.49 ± 0.23 | 807.47 ± 0.23 | 799.27 ± 0.23 | 790.86 ± 0.23 | 782.19 ± 0.23
x1 = 0.1616 | 829.5 ± 0.22 | 825.39 ± 0.22 | 821.25 ± 0.22 | 812.83 ± 0.22 | 804.2 ± 0.22 | 795.34 ± 0.22
x1 = 0.2482 | 844.79 ± 0.2 | 840.55 ± 0.2 | 836.28 ± 0.2 | 827.63 ± 0.21 | 818.79 ± 0.21 | 809.74 ± 0.21
x1 = 0.3212 | 857.93 ± 0.19 | 853.59 ± 0.19 | 849.22 ± 0.19 | 840.38 ± 0.2 | 831.37 ± 0.2 | 822.15 ± 0.2
x1 = 0.4008 | 872.54 ± 0.18 | 868.09 ± 0.18 | 863.61 ± 0.18 | 854.56 ± 0.18 | 845.37 ± 0.19 | 836 ± 0.19
x1 = 0.4828 | 887.9 ± 0.17 | 883.34 ± 0.17 | 878.76 ± 0.17 | 869.5 ± 0.17 | 860.12 ± 0.17 | 850.57 ± 0.18
x1 = 0.5602 | 902.63 ± 0.16 | 897.96 ± 0.16 | 893.27 ± 0.16 | 883.83 ± 0.16 | 874.27 ± 0.16 | 864.57 ± 0.17
x1 = 0.6413 | 918.47 ± 0.15 | 913.69 ± 0.15 | 908.9 ± 0.15 | 899.25 ± 0.15 | 889.49 ± 0.15 | 879.62 ± 0.15
x1 = 0.7201 | 934.21 ± 0.13 | 929.32 ± 0.13 | 924.42 ± 0.14 | 914.55 ± 0.14 | 904.62 ± 0.14 | 894.59 ± 0.14
x1 = 0.8016 | 950.86 ± 0.12 | 945.84 ± 0.12 | 940.81 ± 0.12 | 930.72 ± 0.13 | 920.57 ± 0.13 | 910.32 ± 0.13
x1 = 0.8777 | 966.86 ± 0.11 | 961.72 ± 0.11 | 956.56 ± 0.11 | 946.23 ± 0.12 | 935.86 ± 0.12 | 925.44 ± 0.12
x1 = 0.9586 | 984.47 ± 0.1 | 979.16 ± 0.1 | 973.84 ± 0.1 | 963.22 ± 0.11 | 952.58 ± 0.11 | 941.92 ± 0.11

Reference: the NIST ThermoML archive (doi:10.1021/je201102x)
